Test results: the supplement of paper PMC10307832

Columns and labels:
Experiment in all cases: relative viability (nuclei count vs DMSO), 5 days (fraction); higher = more cells survive
[1] = compound: C/C(=N\NC(=S)N1CCC1)/C2=CC=CC=N2 + COc1cc2c(Oc3ccc(NC(=O)C4(C(=O)Nc5ccc(F)cc5)CC4)cc3F)ccnc2cc1OCCCN1CCOCC1 [Foretinib] (partner 0.25 µM)
How it was run: (§1)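 Lung cancer cell lines in 1536-well plates were dosed by pin tool the day after seeding, either with one drug alone or with a fixed anchor-drug dose plus five library-drug doses (not always all listed) in √10 steps. After 5 days, cells were fixed and their nuclei stained in one step (final 0.05% Triton X-100, 1% formaldehyde, 1 ug/ml Hoechst), then counted on 4× images. Relative viability is the nuclei count in treated wells divided by that in vehicle wells. Values are medians of duplicate plates.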

[2] = compound: C/C(=N\NC(=S)N1CCC1)/C2=CC=CC=N2 + Cc1nc(NC(=O)N2CCC[C@H]2C(N)=O)sc1-c1ccnc(C(C)(C)C(F)(F)F)c1 [Alpelisib] (partner 2 µM)
How it was run: as §1

[3] = compound: C/C(=N\NC(=S)N1CCC1)/C2=CC=CC=N2 + Nc1nc2[nH]cc(CCc3ccc(C(=O)N[C@@H](CCC(=O)O)C(=O)O)cc3)c2c(=O)[nH]1 [Pemetrexed] (partner 0.2 µM)
How it was run: as §1

[4] = compound: C/C(=N\NC(=S)N1CCC1)/C2=CC=CC=N2 + O=C(c1cc(Cc2n[nH]c(=O)c3ccccc23)ccc1F)N1CCN(C(=O)C2CC2)CC1 [Olaparib] (partner 8 µM)
How it was run: as §1

## HOP-62
[1]; first compound 0.05 µM
  relative viability: 0.21
[1]; first compound 0.1581 µM
  relative viability: 0.243
[1]; first compound 0.5 µM
  relative viability: 0.114
[1]; first compound 1.581 µM
  relative viability: 0.116
[1]; first compound 5 µM
  relative viability: 0.112
[2]; first compound 0.05 µM
  relative viability: 0.105
[2]; first compound 0.1581 µM
  relative viability: 0.895
[2]; first compound 0.5 µM
  relative viability: 0.0809
[2]; first compound 1.581 µM
  relative viability: 0.0743
[2]; first compound 5 µM
  relative viability: 0.0607
[3]; first compound 0.05 µM
  relative viability: 0.0662
[3]; first compound 0.1581 µM
  relative viability: 0.0706
[3]; first compound 0.5 µM
  relative viability: 0.0806
[3]; first compound 1.581 µM
  relative viability: 0.128
[3]; first compound 5 µM
  relative viability: 0.0892
[4]; first compound 0.05 µM
  relative viability: 0.079
[4]; first compound 0.1581 µM
  relative viability: 0.0776
[4]; first compound 0.5 µM
  relative viability: 0.0561
[4]; first compound 1.581 µM
  relative viability: 0.0753
[4]; first compound 5 µM
  relative viability: 0.0802

## NCI-H358
[1]; first compound 0.05 µM
  relative viability: 0.0918
[1]; first compound 0.1581 µM
  relative viability: 0.107
[1]; first compound 0.5 µM
  relative viability: 0.0747
[1]; first compound 1.581 µM
  relative viability: 0.0879
[1]; first compound 5 µM
  relative viability: 0.107
[2]; first compound 0.05 µM
  relative viability: 0.196
[2]; first compound 0.1581 µM
  relative viability: 0.174
[2]; first compound 0.5 µM
  relative viability: 0.142
[2]; first compound 1.581 µM
  relative viability: 0.118
[2]; first compound 5 µM
  relative viability: 0.155
[3]; first compound 0.05 µM
  relative viability: 0.114
[3]; first compound 0.1581 µM
  relative viability: 0.107
[3]; first compound 0.5 µM
  relative viability: 0.109
[3]; first compound 1.581 µM
  relative viability: 0.0963
[3]; first compound 5 µM
  relative viability: 0.12
[4]; first compound 0.05 µM
  relative viability: 0.0853
[4]; first compound 0.1581 µM
  relative viability: 0.0833
[4]; first compound 0.5 µM
  relative viability: 0.0714
[4]; first compound 1.581 µM
  relative viability: 0.0722
[4]; first compound 5 µM
  relative viability: 0.067

## SK-MES-1
[1]; first compound 0.05 µM
  relative viability: 0.201
[1]; first compound 0.1581 µM
  relative viability: 0.257
[1]; first compound 0.5 µM
  relative viability: 0.223
[1]; first compound 1.581 µM
  relative viability: 0.166
[1]; first compound 5 µM
  relative viability: 0.238
[2]; first compound 0.05 µM
  relative viability: 0.203
[2]; first compound 0.1581 µM
  relative viability: 0.205
[2]; first compound 0.5 µM
  relative viability: 0.188
[2]; first compound 1.581 µM
  relative viability: 0.165
[2]; first compound 5 µM
  relative viability: 0.183
[3]; first compound 0.05 µM
  relative viability: 0.248
[3]; first compound 0.1581 µM
  relative viability: 0.258
[3]; first compound 0.5 µM
  relative viability: 0.23
[3]; first compound 1.581 µM
  relative viability: 0.177
[3]; first compound 5 µM
  relative viability: 0.207
[4]; first compound 0.05 µM
  relative viability: 0.198
[4]; first compound 0.1581 µM
  relative viability: 0.213
[4]; first compound 0.5 µM
  relative viability: 0.162
[4]; first compound 1.581 µM
  relative viability: 0.174
[4]; first compound 5 µM
  relative viability: 0.164

## NCI-H1666
[1]; first compound 0.05 µM
  relative viability: 0.439
[1]; first compound 0.1581 µM
  relative viability: 0.365
[1]; first compound 0.5 µM
  relative viability: 0.345
[1]; first compound 1.581 µM
  relative viability: 0.348
[1]; first compound 5 µM
  relative viability: 0.331
[2]; first compound 0.05 µM
  relative viability: 0.198
[2]; first compound 0.1581 µM
  relative viability: 0.208
[2]; first compound 0.5 µM
  relative viability: 0.23
[2]; first compound 1.581 µM
  relative viability: 0.212
[2]; first compound 5 µM
  relative viability: 0.224
[3]; first compound 0.05 µM
  relative viability: 0.532
[3]; first compound 0.1581 µM
  relative viability: 0.638
[3]; first compound 0.5 µM
  relative viability: 0.54
[3]; first compound 1.581 µM
  relative viability: 0.442
[3]; first compound 5 µM
  relative viability: 0.473
[4]; first compound 0.05 µM
  relative viability: 0.601
[4]; first compound 0.1581 µM
  relative viability: 0.547
[4]; first compound 0.5 µM
  relative viability: 0.479
[4]; first compound 1.581 µM
  relative viability: 0.461
[4]; first compound 5 µM
  relative viability: 0.523

## NCI-H1355
[1]; first compound 0.05 µM
  relative viability: 0.282
[1]; first compound 0.1581 µM
  relative viability: 0.378
[1]; first compound 0.5 µM
  relative viability: 0.22
[1]; first compound 1.581 µM
  relative viability: 0.197
[1]; first compound 5 µM
  relative viability: 0.162
[2]; first compound 0.05 µM
  relative viability: 0.205
[2]; first compound 0.1581 µM
  relative viability: 0.545
[2]; first compound 0.5 µM
  relative viability: 0.149
[2]; first compound 1.581 µM
  relative viability: 0.145
[2]; first compound 5 µM
  relative viability: 0.156
[3]; first compound 0.05 µM
  relative viability: 0.195
[3]; first compound 0.1581 µM
  relative viability: 0.18
[3]; first compound 0.5 µM
  relative viability: 0.177
[3]; first compound 1.581 µM
  relative viability: 0.189
[3]; first compound 5 µM
  relative viability: 0.152
[4]; first compound 0.05 µM
  relative viability: 0.22
[4]; first compound 0.1581 µM
  relative viability: 0.179
[4]; first compound 0.5 µM
  relative viability: 0.171
[4]; first compound 1.581 µM
  relative viability: 0.175
[4]; first compound 5 µM
  relative viability: 0.142

## HCC-827
[1]; first compound 0.05 µM
  relative viability: 0.538
[1]; first compound 0.1581 µM
  relative viability: 0.583
[1]; first compound 0.5 µM
  relative viability: 0.239
[1]; first compound 1.581 µM
  relative viability: 0.223
[1]; first compound 5 µM
  relative viability: 0.17
[2]; first compound 0.05 µM
  relative viability: 0.556
[2]; first compound 0.1581 µM
  relative viability: 1.01
[2]; first compound 0.5 µM
  relative viability: 0.264
[2]; first compound 1.581 µM
  relative viability: 0.279
[2]; first compound 5 µM
  relative viability: 0.186
[3]; first compound 0.05 µM
  relative viability: 0.224
[3]; first compound 0.1581 µM
  relative viability: 0.225
[3]; first compound 0.5 µM
  relative viability: 0.259
[3]; first compound 1.581 µM
  relative viability: 0.152
[3]; first compound 5 µM
  relative viability: 0.171
[4]; first compound 0.05 µM
  relative viability: 0.333
[4]; first compound 0.1581 µM
  relative viability: 0.227
[4]; first compound 0.5 µM
  relative viability: 0.203
[4]; first compound 1.581 µM
  relative viability: 0.145
[4]; first compound 5 µM
  relative viability: 0.175

## HARA
[1]; first compound 0.05 µM
  relative viability: 0.207
[1]; first compound 0.1581 µM
  relative viability: 0.307
[1]; first compound 0.5 µM
  relative viability: 0.09
[1]; first compound 1.581 µM
  relative viability: 0.0777
[1]; first compound 5 µM
  relative viability: 0.0635
[2]; first compound 0.05 µM
  relative viability: 0.31
[2]; first compound 0.1581 µM
  relative viability: 0.0915
[2]; first compound 0.5 µM
  relative viability: 0.122
[2]; first compound 1.581 µM
  relative viability: 0.145
[2]; first compound 5 µM
  relative viability: 0.0798
[3]; first compound 0.05 µM
  relative viability: 0.218
[3]; first compound 0.1581 µM
  relative viability: 0.174
[3]; first compound 0.5 µM
  relative viability: 0.212
[3]; first compound 1.581 µM
  relative viability: 0.141
[3]; first compound 5 µM
  relative viability: 0.165
[4]; first compound 0.05 µM
  relative viability: 0.433
[4]; first compound 0.1581 µM
  relative viability: 0.192
[4]; first compound 0.5 µM
  relative viability: 0.13
[4]; first compound 1.581 µM
  relative viability: 0.119
[4]; first compound 5 µM
  relative viability: 0.13

## HCC-366
[1]; first compound 0.05 µM
  relative viability: 0.127
[1]; first compound 0.1581 µM
  relative viability: 0.346
[1]; first compound 0.5 µM
  relative viability: 0.0579
[1]; first compound 1.581 µM
  relative viability: 0.0562
[1]; first compound 5 µM
  relative viability: 0.0285
[2]; first compound 0.05 µM
  relative viability: 0.0241
[2]; first compound 0.1581 µM
  relative viability: 0.013
[2]; first compound 0.5 µM
  relative viability: 0.0152
[2]; first compound 1.581 µM
  relative viability: 0.0166
[2]; first compound 5 µM
  relative viability: 0.0137
[3]; first compound 0.05 µM
  relative viability: 0.0318
[3]; first compound 0.1581 µM
  relative viability: 0.0443
[3]; first compound 0.5 µM
  relative viability: 0.0286
[3]; first compound 1.581 µM
  relative viability: 0.0295
[3]; first compound 5 µM
  relative viability: 0.0319
[4]; first compound 0.05 µM
  relative viability: 0.119
[4]; first compound 0.1581 µM
  relative viability: 0.0248
[4]; first compound 0.5 µM
  relative viability: 0.0175
[4]; first compound 1.581 µM
  relative viability: 0.0198
[4]; first compound 5 µM
  relative viability: 0.0219
